From ChEMBL document CHEMBL5674886, “GLUT4 expression and glucose transport in human induced pluripotent stem cell-derived cardiomyocytes” (PLoS One, 2019)
pIC50: −log10 of the molar value.

Experiments:
Type in all cases: cell-based
[1] = target: T1, Solute carrier family 2, facilitated glucose transporter member 1 (Mus musculus) (UniProt P17809); assay: Inhibition of GLUT1 in mouse 3T3-L1 cells assessed as reduction in insulin-stimulated [3H]-2-deoxyglucose uptake at 20 nM incubated for 30 mins by [3H]-2-deoxyglucose uptake assay
T1 sequence (whole entry): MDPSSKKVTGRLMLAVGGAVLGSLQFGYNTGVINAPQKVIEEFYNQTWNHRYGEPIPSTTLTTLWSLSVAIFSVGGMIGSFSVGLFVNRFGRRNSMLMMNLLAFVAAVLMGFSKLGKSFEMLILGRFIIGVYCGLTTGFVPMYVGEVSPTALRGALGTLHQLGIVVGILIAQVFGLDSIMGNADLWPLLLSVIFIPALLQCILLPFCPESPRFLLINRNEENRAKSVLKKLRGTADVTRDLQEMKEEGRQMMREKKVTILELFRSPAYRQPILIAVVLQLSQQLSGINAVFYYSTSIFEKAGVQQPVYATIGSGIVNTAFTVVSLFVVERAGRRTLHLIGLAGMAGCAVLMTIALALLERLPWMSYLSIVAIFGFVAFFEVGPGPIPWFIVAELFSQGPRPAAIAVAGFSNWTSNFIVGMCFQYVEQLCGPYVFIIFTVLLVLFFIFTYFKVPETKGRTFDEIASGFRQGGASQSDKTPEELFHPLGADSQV

[2] = target: T2, Solute carrier family 2, facilitated glucose transporter member 4 (Homo sapiens, UniProt P14672); assay: Inhibition of human GLUT4 expressed in CHO cells measured after 15 mins by cell-titer-Glo luminescent cell viability assay
T2 sequence (P14672 whole entry): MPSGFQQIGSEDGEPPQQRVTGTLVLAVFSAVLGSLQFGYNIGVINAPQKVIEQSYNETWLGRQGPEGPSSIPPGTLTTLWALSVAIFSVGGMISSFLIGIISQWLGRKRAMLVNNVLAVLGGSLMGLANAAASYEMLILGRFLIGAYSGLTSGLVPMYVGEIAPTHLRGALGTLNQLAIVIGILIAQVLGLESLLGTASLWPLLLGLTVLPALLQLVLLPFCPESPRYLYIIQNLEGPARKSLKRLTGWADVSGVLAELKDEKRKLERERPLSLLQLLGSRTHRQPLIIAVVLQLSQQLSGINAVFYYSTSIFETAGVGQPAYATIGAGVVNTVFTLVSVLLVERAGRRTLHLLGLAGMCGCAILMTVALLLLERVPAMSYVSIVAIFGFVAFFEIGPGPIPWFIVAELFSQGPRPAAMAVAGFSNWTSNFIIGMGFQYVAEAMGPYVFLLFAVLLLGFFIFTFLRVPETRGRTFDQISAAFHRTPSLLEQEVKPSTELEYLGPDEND

[3] = target: T1, Solute carrier family 2, facilitated glucose transporter member 1 (Mus musculus); assay: Inhibition of GLUT1 in mouse 3T3-L1 cells assessed as reduction in insulin-stimulated [3H]-2-deoxyglucose uptake at 2 uM incubated for 30 mins by [3H]-2-deoxyglucose uptake assay

inhibition [1]: 25% | inhibition [3]: 100%
SMILES: Cc1c(NC(=O)c2cc(C(N)=O)nc3cc(F)ccc23)c(C(F)(F)F)nn1Cc1ccc(C#N)cc1 [BAY-876]
pIC50 [2]: 6.70
